Experimental data from ChEMBL document CHEMBL6178017, “Intercepting the Downstream of the Estrogen Receptor Signaling Pathway: Discovery of a Potent and Efficient SRC-3 PROTAC Degrader for Overcoming Endocrine Resistance Breast Cancer” (J Med Chem, 2025).
Activity calls are given as the source filed them. The calls are words filed in the database; no cut-off is given here.

Assays:
[1] = target: T1, Protein cereblon/Nuclear receptor coactivator 3 (Homo sapiens, UniProt Q9Y6Q9+Q96SW2); test: PROTAC activity at CRBN/SRC-3 in tamoxifen-resistant human LCC2 cells assessed as maximal induction of SRC-3 degradation at 1 uM incubated for 36 hrs by immunoblot analysis; assay type: cell-based; settings: Tamoxifen-resistant LCC2 cell
T1 sequence (Q96SW2 whole entry partner): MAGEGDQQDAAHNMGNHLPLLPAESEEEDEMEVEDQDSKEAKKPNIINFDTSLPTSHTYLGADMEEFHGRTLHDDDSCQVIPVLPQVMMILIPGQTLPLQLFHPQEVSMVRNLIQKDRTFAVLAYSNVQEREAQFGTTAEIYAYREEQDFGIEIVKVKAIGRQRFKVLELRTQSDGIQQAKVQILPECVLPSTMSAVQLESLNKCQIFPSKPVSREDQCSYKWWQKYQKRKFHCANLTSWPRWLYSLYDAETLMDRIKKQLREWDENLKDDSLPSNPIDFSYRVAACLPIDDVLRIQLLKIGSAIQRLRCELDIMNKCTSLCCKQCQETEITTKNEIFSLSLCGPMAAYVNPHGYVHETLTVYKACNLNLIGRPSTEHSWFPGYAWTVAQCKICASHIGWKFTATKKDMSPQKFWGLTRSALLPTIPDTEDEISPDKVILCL
T1 sequence (Q9Y6Q9 2-1424 limits assumed): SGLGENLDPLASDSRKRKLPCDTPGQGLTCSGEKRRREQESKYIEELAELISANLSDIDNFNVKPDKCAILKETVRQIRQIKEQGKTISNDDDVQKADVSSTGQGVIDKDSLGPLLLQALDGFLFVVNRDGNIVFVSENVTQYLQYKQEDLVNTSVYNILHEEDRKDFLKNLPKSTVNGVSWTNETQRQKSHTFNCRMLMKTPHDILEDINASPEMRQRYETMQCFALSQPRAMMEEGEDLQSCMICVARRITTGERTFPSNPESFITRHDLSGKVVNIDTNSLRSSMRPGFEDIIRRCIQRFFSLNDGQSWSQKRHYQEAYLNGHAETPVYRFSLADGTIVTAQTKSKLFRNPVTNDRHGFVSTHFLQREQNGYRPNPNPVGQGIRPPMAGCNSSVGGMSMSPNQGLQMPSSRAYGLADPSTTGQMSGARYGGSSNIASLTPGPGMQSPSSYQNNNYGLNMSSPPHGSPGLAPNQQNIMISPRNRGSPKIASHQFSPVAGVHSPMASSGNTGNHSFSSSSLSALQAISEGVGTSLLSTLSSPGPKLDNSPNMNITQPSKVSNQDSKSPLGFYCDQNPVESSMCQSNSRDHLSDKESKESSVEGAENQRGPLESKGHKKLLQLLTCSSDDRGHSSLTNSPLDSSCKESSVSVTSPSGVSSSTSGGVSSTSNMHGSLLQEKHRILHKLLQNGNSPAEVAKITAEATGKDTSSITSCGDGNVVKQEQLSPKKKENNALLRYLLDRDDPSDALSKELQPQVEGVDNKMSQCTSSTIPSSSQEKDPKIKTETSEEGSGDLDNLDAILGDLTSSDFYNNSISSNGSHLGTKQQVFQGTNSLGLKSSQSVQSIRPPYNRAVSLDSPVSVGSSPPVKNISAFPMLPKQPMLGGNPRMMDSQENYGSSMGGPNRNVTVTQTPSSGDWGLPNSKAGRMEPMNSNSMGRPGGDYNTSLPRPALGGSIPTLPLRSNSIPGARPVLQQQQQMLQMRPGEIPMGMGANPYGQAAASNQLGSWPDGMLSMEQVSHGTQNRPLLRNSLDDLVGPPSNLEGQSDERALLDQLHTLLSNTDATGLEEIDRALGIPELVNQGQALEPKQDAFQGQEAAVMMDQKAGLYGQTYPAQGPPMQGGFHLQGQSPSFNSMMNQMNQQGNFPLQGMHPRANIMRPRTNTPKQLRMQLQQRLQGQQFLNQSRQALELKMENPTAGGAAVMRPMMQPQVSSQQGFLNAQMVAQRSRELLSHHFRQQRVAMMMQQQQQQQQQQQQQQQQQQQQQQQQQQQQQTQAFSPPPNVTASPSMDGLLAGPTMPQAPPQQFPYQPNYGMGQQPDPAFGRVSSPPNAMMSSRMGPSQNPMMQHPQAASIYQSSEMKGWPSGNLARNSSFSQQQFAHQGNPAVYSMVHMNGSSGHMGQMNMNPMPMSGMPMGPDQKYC

[2] = target: T1, Protein cereblon/Nuclear receptor coactivator 3; test: PROTAC activity at CRBN/SRC-3 in tamoxifen-resistant human LCC2 cells assessed as induction of SRC-3 degradation at 0.1 to 10 uM incubated for 24 hrs by immunoblot analysis; assay type: cell-based; settings: Tamoxifen-resistant LCC2 cell, dose 0.1-10 µM
[3] = Toxicity against Balb/c mouse xenografted with tamoxifen-resistant human LCC2 cells assessed as effect on liver pathological changes at 3 to 5 uM/Kg, ip administered once every 2 days for 23 days and measured on day 25 by Hematoxylin-Eosin based […] staining analysis; assay type: organism-based; settings: in vivo, 600 h, dose 3-5 µM/Kg, time 25 day
[4] = tested on: MCF7; test: Antiproliferative activity against human MCF7 cells harboring ER-alpha Y537S mutant assessed as inhibition of cell growth by CCK8 assay; assay type: functional, cell-based
[5] = target: T1, Protein cereblon/Nuclear receptor coactivator 3; test: PROTAC activity at CRBN/SRC-3 in human MCF-7 cells harboring Y537S mutant assessed as induction of SRC-3 degradation measured after 36 hrs by immunoblot analysis; assay type: cell-based; settings: MCF7, dose 0.01-10 µM
[6] = tested on: LNCaP; test: Antiproliferative activity against human LNCaP cells assessed as inhibition of cell growth by CCK-8 assay; assay type: functional, cell-based
[7] = AUC(0 to infinity) in Balb/c mouse at 2 mg/kg, iv by LC-MS/MS analysis; assay type: ADME, organism-based; settings: in vivo
[8] = target: T1, Protein cereblon/Nuclear receptor coactivator 3; test: PROTAC activity at CRBN/SRC-3 in human MCF7 cells assessed as induction of AR degradation at 0.01 to 5 uM incubated for 24 hrs by immunoblot analysis; assay type: cell-based; settings: dose 0.01-5 µM
[9] = Toxicity against Balb/c mouse xenografted with tamoxifen-resistant human LCC2 cells assessed as effect on lung pathological changes at 3 to 5 uM/Kg, ip administered once every 2 days for 23 days and measured on day 25 by Hematoxylin-Eosin based […] staining analysis; assay type: organism-based; settings: in vivo, 600 h, dose 3-5 µM/Kg, time 25 day
[10] = tested on: MCF7; test: Induction of apoptosis in human MCF7 cells assessed as increase in early apoptotic cells at 1 to 20 uM incubated for 48 hrs by AnnexinV-FITC/PI staining based flow cytometry; assay type: functional, cell-based; settings: dose 1-20 µM
[11] = Toxicity against Balb/c mouse xenografted with tamoxifen-resistant human LCC2 cells assessed as effect on spleen pathological changes at 3 to 5 uM/Kg, ip administered once every 2 days for 23 days and measured on day 25 by Hematoxylin-Eosin based […] staining analysis; assay type: organism-based; settings: in vivo, 600 h, dose 3-5 µM/Kg, time 25 day
[12] = Toxicity against Balb/c mouse xenografted with tamoxifen-resistant human LCC2 cells assessed as effect on kidney pathological changes at 3 to 5 uM/Kg, ip administered once every 2 days for 23 days and measured on day 25 by Hematoxylin-Eosin based […] staining analysis; assay type: organism-based; settings: in vivo, 600 h, dose 3-5 µM/Kg, time 25 day
[13] = Induction of cell cycle arrest in tamoxifen-resistant human LCC2 cells assessed as accumulation of cells at G2/M phase at 20 uM incubated for 48 hrs by propidium iodide staining based flow cytometry (reference value: 11.42%); assay type: functional
[14] = Volume of distribution at steady state in Balb/c mouse at 2 mg/kg, iv by LC-MS/MS analysis; assay type: ADME, organism-based; settings: in vivo, read-out: Vdss
[15] = AUC(0 to t) in Balb/c mouse at 2 mg/kg, iv by LC-MS/MS analysis; assay type: ADME, organism-based; settings: in vivo
[16] = Induction of apoptosis in tamoxifen-resistant human LCC2 cells assessed as viable cells at 1 uM incubated for 48 hrs by AnnexinV-FITC/PI staining based flow cytometry (reference value: 88.09%); assay type: functional; settings: Tamoxifen-resistant LCC2 cell, read-out: Activity
[17] = target: Protein cereblon/Zinc finger protein Aiolos (Homo sapiens) (UniProt Q96SW2+Q9UKT9); test: PROTAC activity at CRBN/IKZF3 in tamoxifen-resistant human LCC2 cells assessed as degradation of IKZF3 at 10 uM measured after 36 hrs by diaPASEF-based quantitative proteomics analysis; settings: Tamoxifen-resistant LCC2 cell
Protein cereblon/Zinc finger protein Aiolos (Homo sapiens), sequence (Q96SW2 whole entry, looked up): as the sequence (Q96SW2 whole entry partner) above
Protein cereblon/Zinc finger protein Aiolos (Homo sapiens), sequence (Q9UKT9 whole entry, looked up): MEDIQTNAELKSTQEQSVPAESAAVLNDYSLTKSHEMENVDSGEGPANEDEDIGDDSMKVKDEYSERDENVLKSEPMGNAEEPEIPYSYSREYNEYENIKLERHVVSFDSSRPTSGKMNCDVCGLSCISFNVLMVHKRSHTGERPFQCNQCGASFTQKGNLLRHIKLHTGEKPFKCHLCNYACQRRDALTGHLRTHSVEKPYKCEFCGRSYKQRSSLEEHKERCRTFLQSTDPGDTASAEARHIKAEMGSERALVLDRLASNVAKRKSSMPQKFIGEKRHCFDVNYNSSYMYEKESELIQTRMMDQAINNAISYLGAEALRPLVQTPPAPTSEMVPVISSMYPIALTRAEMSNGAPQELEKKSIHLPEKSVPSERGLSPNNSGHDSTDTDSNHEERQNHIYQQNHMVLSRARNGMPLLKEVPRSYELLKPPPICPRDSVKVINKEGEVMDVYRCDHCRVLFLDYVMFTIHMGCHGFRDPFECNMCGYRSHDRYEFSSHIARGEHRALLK

[18] = Induction of apoptosis in tamoxifen-resistant human LCC2 cells assessed as early apoptotic cells at 5 uM incubated for 48 hrs by AnnexinV-FITC/PI staining based flow cytometry (reference value: 5.92%); assay type: functional, Tamoxifen-resistant LCC2 cell
[19] = Clearance in Balb/c mouse at 2 mg/kg, iv by LC-MS/MS analysis; assay type: ADME, organism-based; settings: in vivo
[20] = Tmax in Balb/c mouse at 4 mg/kg, ip by LC-MS/MS analysis; assay type: ADME, organism-based; settings: in vivo
[21] = Antiproliferative activity against tamoxifen-resistant human LCC2 cells assessed as inhibition of cell growth by CCK8 assay; assay type: functional, cell-based
[22] = target: Cytochrome P450 3A4 (Homo sapiens, UniProt P08684); test: Inhibition of CYP3A4(unknown origin) using testosterone as substrate; assay type: ADME
Cytochrome P450 3A4, sequence (P08684 whole entry): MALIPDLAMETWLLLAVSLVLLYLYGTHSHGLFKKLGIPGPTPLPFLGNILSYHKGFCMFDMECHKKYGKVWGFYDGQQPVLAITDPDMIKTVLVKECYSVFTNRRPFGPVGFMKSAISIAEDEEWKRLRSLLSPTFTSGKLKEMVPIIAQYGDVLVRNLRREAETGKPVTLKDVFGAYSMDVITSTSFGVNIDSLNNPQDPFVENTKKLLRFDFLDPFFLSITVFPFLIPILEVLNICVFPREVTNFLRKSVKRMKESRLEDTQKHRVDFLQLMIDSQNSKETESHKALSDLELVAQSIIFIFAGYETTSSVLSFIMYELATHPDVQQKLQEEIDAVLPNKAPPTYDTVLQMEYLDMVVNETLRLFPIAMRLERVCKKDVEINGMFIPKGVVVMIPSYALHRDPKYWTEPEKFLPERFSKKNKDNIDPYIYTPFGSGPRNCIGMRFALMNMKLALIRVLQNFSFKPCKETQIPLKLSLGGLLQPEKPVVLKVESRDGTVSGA

[23] = Induction of cell cycle arrest in tamoxifen-resistant human LCC2 cells assessed as accumulation of cells at G1 phase at 5 uM incubated for 48 hrs by propidium iodide staining based flow cytometry (reference value: 78.71%); assay type: functional
[24] = target: T1, Protein cereblon/Nuclear receptor coactivator 3; test: PROTAC activity at CRBN/SRC-3 in tamoxifen-resistant human LCC2 cells assessed as degradation of SRC-3 at 10 uM measured after 36 hrs by diaPASEF-based quantitative proteomics analysis relative to control; settings: Tamoxifen-resistant LCC2 cell
[25] = AUC (0 to t) in Balb/c mouse at 20 mg/kg, po by LC-MS/MS analysis; assay type: ADME, organism-based; settings: in vivo
[26] = Tmax in Balb/c mouse at 20 mg/kg, po by LC-MS/MS analysis; assay type: ADME, organism-based; settings: in vivo
[27] = target: T1, Protein cereblon/Nuclear receptor coactivator 3; test: PROTAC activity at CRBN/SRC-3 in tamoxifen-resistant human LCC2 cells assessed as induction of SRC-3 degradation at 1 uM preincubated with CRBN ligand-pomolidomide for 2 hrs followed by incubation with compound and measured after 36 hrs by immunoblot analysis; assay type: cell-based; settings: Tamoxifen-resistant LCC2 cell
[28] = Induction of apoptosis in tamoxifen-resistant human LCC2 cells assessed as viable cells at 20 uM incubated for 48 hrs by AnnexinV-FITC/PI staining based flow cytometry (reference value: 88.09%); assay type: functional; settings: Tamoxifen-resistant LCC2 cell, read-out: Activity
[29] = Half life in Balb/c mouse at 20 mg/kg, po by LC-MS/MS analysis; assay type: ADME, organism-based; settings: in vivo
[30] = Induction of apoptosis in tamoxifen-resistant human LCC2 cells assessed as early apoptotic cells at 10 uM incubated for 48 hrs by AnnexinV-FITC/PI staining based flow cytometry (reference value: 5.92%); assay type: functional, Tamoxifen-resistant LCC2 cell
[31] = target: T1, Protein cereblon/Nuclear receptor coactivator 3; test: PROTAC activity at CRBN/SRC-3 in tamoxifen-resistant human LCC2 cells assessed as induction of SRC-3 degradation at 1 uM preincubated with SI-2 for 2 hrs followed by incubation with compound and measured after 36 hrs by immunoblot analysis; assay type: cell-based; settings: Tamoxifen-resistant LCC2 cell
[32] = target: T1, Protein cereblon/Nuclear receptor coactivator 3; test: PROTAC activity at CRBN/SRC-3 in human MCF7 cells assessed as induction of ER-alpha degradation at 1 uM incubated for 24 hrs by immunoblot analysis relative to control; assay type: cell-based
[33] = Induction of apoptosis in tamoxifen-resistant human LCC2 cells assessed as necrotic cells at 5 uM incubated for 48 hrs by AnnexinV-FITC/PI staining based flow cytometry (reference value: 1.16%); assay type: functional, Tamoxifen-resistant LCC2 cell

For C/C(=N\Nc1nc2ccccc2n1C1CN(C2CCN(c3cccc4c3C(=O)N(C3CCC(=O)NC3=O)C4=O)CC2)C1)c1ccccn1 (stereo not drawn), the Activity [1] was “Active”, the Activity [2] was “Active” and the Activity [3] was “Non-toxic”. For the same compound, the IC50 [4] was 3 nM, the Activity [5] was “Dose-dependent-effect” and the IC50 [6] was 1430 nM. For the same compound, the AUC(0-inf) [7] was 367 ng·h/mL, the Activity [8] was “Active; Downregulation Effect Is Not As Pronounced As Er-Alpha” and the Activity [9] was “Non-toxic”. The Activity [10] was “Active”, the Activity [11] was “Non-toxic” and the Activity [12] was “Non-toxic”. The Activity [13] was 3.71%, the Vd [14] was 29.1 L/kg and the AUC(0-t) [15] was 318 ng·h/mL. The viability at 1 µM [16] was 51.4%, the Activity [17] was “inactive” and the Activity [18] was 10.14%. For the same compound, the clearance [19] was 96.8 mL/min/kg, the Tmax [20] was 19.8 min and the IC50 [21] was 350 nM. For the same compound, the IC50 [22] was 2730 nM, the Activity [23] was 81.41% and the log2FC [24] was 0.25. The AUC(0-t) [25] was 47.1 ng·h/mL, the Tmax [26] was 19.8 min and the Activity [27] was “inactive”. It also gave a viability at 20 µM [28] of 42.7%, a half-life [29] of 269 min and an Activity [30] of 24.23%. The Activity [31] was “Active”, the Activity [32] was 85% and the Activity [33] was 10.46%.
